# Values quoted from earlier work as cited in patent publication US9445992B2, “Mucosal delivery compositions comprising a peptide complexed with a crown compound and/or a counter ion” (ARISGEN SA, priority 2009, dated 2016).
# Details: in water
smiles,measurement,value
"CCCCCCCCCCCC(=O)OC[C@H](COP(=O)(O)OCC(O)CO)OC(=O)CCCCCCCCCCC (stereo partly shown) [DLPG, dilauryloylphosphatidylglycerol]",pKa,< 2
